Experimental data from publication PMC5441875 (eLife, 2017).
Where “and” joins values, the source holds several entries; their conditions need not be identical. Equal entries are not always repeated. Where two headings read alike, the source gives them in different places.

Tests used:
[1] = target: T1, WT GluN1/GluN2A receptors (Rattus norvegicus, UniProt P35439+Q00959); experiment: Potentiation by the positive allosteric modulator GNE-6901, whole-cell patch-clamp; assay type: cell-based; set-up: expressed in transfected cells; host or cells: HEK-293 cells (ATCC), PEI transfection, pcDNA3-based vectors
Protocol: (§1) Receptor functionality and light-sensitivity were assessed in patch-clamp recordings of lifted whole cells 24–72 hr post transfection. Positively transfected cells were visualized by GFP-fluorescence. […] The osmolarity was 270–290 mOsm. The cells were continuously perfused with a Ringer solution containing (in mM): 140 NaCl, 2.8 KCl, 1 CaCl2, 0.01 DTPA, 10 HEPES and five sucrose (pH 7.3 with NaOH). The osmolarity was 290 mOsm. DTPA was added to prevent tonic inhibition of NMDARs by ambient zinc ([Paoletti et al., 1997]). Currents were recorded using an Axopatch 200B amplifier and a Digidata 1550A interface (Molecular Devices), sampled at 10–20 kHz, and low-pass filtered at 2–5 kHz. The cells were voltage-clamped at −60 mV. pClamp 10.5 (Molecular Devices) was used to acquire the data. All recordings were performed at room temperature.
(§2) Agonists or other pharmacological substances were applied using a multi-barrel rapid solution exchanger system (RSC 200, Bio-Logic). […] The agonist deactivation kinetics were assessed by including the converse co-agonist to the control solution. For Mg^2+-DRCs, the concentration of DTPA, which has orders of magnitude higher affinity for Zn^2+ than Mg^2+ ([Paoletti et al., 1997]), was reduced to 1 µM to avoid excessive Mg^2+ chelation, while maintaining depletion of ambient zinc (estimated in the few hundreds of nM). Accordingly, Mg^2+ concentrations reported in the Mg^2+-DRC were not corrected and correspond to the nominal concentrations of added Mg^2+. MK-801 was applied at 1 μM to assure full inhibition of WT NMDAR-mediated currents. The positive allosteric modulator (PAM) GNE-6901 (obtained from Genentech, South San Francisco, USA) was used at a final concentration of 30 μM ([Hackos et al., 2016]).
(§3) Computer-controlled light pulses during electrophysiological recordings were provided from sensitive high power LEDs (Prizmatix). […] The LED port was directly coupled via a microscope adaptor to the fluorescence port of an inverted DIAPHOT 300 Nikon microscope. […]

[2] = tested on: GluN1-P532PSAA/GluN2A receptors; experiment: as above; assay type: cell-based, rat
Protocol: as §1
Agonists or other pharmacological substances were applied using a multi-barrel rapid solution exchanger system (RSC 200, Bio-Logic). […] The agonist deactivation kinetics were assessed by including the converse co-agonist to the control solution. […]
as §3

[3] = tested on: GluN1-P532PSAA/GluN2A receptors; experiment: MK-801 open channel block kinetics, whole-cell patch-clamp; assay type: cell-based, rat
Protocol: as §1, §2
(§4) Computer-controlled light pulses during electrophysiological recordings were provided from sensitive high power LEDs (Prizmatix). The three following LEDs were used: Mic-LED-365 (UV, 200 mW), UHP-Mic-LED-460 (blue, 2W) and UHP-Mic-LED-520 (green, 900 mW). The LED port was directly coupled via a microscope adaptor to the fluorescence port of an inverted DIAPHOT 300 Nikon microscope. The output beams of the three Mic-LEDs were joined by a dichroic beam combiner module and the resulting light was applied to the center of the recording dish through a 10X objective (Leitz Wetzlar). The light intensity of all three LEDs was set to 100%, unless otherwise noted.
(§5) Current traces obtained in electrophysiological recordings were transferred to Igor Pro (version 6.3) or Clampfit (version 10.5) for display and analysis. The kinetics of photoinactivation and photopotentiation were obtained by fitting currents with a single exponential function as follows: Y = A*exp(-t/τ) + C, with A as the initial current amplitude, Tau (τ) the decay time constant, and C the steady-state level. The inhibition by MK-801 was also fit with a monoexponential function. […] Accordingly, and for comparative purposes, only single exponential fits were used when studying MK-801 inhibition. Agonist DRCs were fit with the following Hill equation: Irel = 1/(1 + (EC50 / [ago])^nH), with EC50 and the Hill coefficient (nH) as free parameters. For Mg^2+-DRCs the following equation was used: Irel = 100*(1-(a/(1+[IC50]/[Mg^2+)^nH,)), where a is the maximal current inhibition by Mg^2+. IC50, a, and the Hill coefficient (nH) were set as free parameters.

[4] = tested on: GluN1-F654PSAA/GluN2A receptors; experiment: MK-801 open channel block (kinetics and extent), whole-cell patch-clamp; assay type: cell-based, rat
Protocol: as §1, §2, §4, §5

[5] = tested on: GluN1-Y647PSAA/GluN2A receptors; experiment: as above; assay type: cell-based, rat; settings: 1 µM MK-801, Y647PSAA mutant
Protocol: as §1, §2, §4, §5

[6] = target: T1, WT GluN1/GluN2A receptors; experiment: as above; assay type: cell-based; set-up: expressed in transfected cells; host or cells: HEK-293 cells (ATCC), PEI transfection, pcDNA3-based vectors; settings: 1 µM MK-801, WT
Protocol: as §1, §2, §4, §5

[7] = target: T1, WT GluN1/GluN2A receptors; experiment: Magnesium dose-response curves (Mg2+-DRCs), whole-cell patch-clamp; assay type: cell-based; set-up: expressed in transfected cells; host or cells: HEK-293 cells (ATCC), PEI transfection, pcDNA3-based vectors
Protocol: as §1, §2, §3

[8] = tested on: GluN1-F654PSAA/GluN2A receptors; experiment: as above; assay type: cell-based, rat; settings: F654PSAA mutant
Protocol: as §1, §2, §4, §5

[9] = tested on: GluN1-Y647PSAA/GluN2A receptors; experiment: as above; assay type: cell-based, rat; settings: Y647PSAA mutant
Protocol: as §1, §2, §4, §5

[10] = UV/Vis spectra of the free PSAA photoisomers; assay type: physicochemical; settings: isopropanol, 5 min irradiation at 460 nm
Protocol: The UV/Vis spectra of the free PSAA (100 μM) were measured using a UVIKON 922 spectrophotometer (Kontron Instruments) in 1 x 1 × 4 cm quartz cuvettes. The spectra were measured at two different conditions: (i) with PSAA in the extracellular (Ringer) solution to be as close as possible to the recording conditions, and (ii) in isopropanol to mimic a hydrophobic environment (since PSAA is buried in the protein) ([Ye et al., 2009]). To induce the different photoisomers, the dissolved PSAA was directly irradiated in the cuvette at 365 nm (30 mW), 460 nm (241 mW), and 525 nm (35 mW) using a Cool LED pE-4000 illumination system. The UV spectra of the pure trans-isomer were recorded upon storage in the dark.

[11] = target: GluN1-P532PSAA/GluN2A receptors; settings: PSAA-mutant
Protocol: as §1, §2
Computer-controlled light pulses during electrophysiological recordings were provided from sensitive high power LEDs (Prizmatix).

[12] = tested on: GluN1-P532PSAA/GluN2A receptors; settings: PSAA-mutant; for τdeact,UV (example trace) / τdeact,BLUE (example trace): single example trace; for τdeact,BLUE (example trace): blue light
Protocol: as §1, §2, §4
The weighted deactivation time constants were calculated with: τw =( Af/(Af+As))*τf + (As /(Af + As))*τs.

[13] = tested on: GluN1-P532PSAA/GluN2A receptors; experiment: UV-induced photoinhibition of currents in the presence of ligands (glycine concentrations, competitive antagonists, PAM); assay type: cell-based, rat
Protocol: as §1, §2, §4

[14] = 1 µM MK-801, F654PSAA mutant, UV
[15] = 1 µM MK-801, F654PSAA mutant, dark
[16] = blue light, read-out: IC50 BLUE
[17] = read-out: EC50,BLUE, blue light (460 nm)
[18] = read-out: EC50,DARK, dark, 100 μM of the respective co-agonist
[19] = read-out: EC50,UV, UV light (365 nm)

T1 sequence (Q00959 23-1464, other chains not shown): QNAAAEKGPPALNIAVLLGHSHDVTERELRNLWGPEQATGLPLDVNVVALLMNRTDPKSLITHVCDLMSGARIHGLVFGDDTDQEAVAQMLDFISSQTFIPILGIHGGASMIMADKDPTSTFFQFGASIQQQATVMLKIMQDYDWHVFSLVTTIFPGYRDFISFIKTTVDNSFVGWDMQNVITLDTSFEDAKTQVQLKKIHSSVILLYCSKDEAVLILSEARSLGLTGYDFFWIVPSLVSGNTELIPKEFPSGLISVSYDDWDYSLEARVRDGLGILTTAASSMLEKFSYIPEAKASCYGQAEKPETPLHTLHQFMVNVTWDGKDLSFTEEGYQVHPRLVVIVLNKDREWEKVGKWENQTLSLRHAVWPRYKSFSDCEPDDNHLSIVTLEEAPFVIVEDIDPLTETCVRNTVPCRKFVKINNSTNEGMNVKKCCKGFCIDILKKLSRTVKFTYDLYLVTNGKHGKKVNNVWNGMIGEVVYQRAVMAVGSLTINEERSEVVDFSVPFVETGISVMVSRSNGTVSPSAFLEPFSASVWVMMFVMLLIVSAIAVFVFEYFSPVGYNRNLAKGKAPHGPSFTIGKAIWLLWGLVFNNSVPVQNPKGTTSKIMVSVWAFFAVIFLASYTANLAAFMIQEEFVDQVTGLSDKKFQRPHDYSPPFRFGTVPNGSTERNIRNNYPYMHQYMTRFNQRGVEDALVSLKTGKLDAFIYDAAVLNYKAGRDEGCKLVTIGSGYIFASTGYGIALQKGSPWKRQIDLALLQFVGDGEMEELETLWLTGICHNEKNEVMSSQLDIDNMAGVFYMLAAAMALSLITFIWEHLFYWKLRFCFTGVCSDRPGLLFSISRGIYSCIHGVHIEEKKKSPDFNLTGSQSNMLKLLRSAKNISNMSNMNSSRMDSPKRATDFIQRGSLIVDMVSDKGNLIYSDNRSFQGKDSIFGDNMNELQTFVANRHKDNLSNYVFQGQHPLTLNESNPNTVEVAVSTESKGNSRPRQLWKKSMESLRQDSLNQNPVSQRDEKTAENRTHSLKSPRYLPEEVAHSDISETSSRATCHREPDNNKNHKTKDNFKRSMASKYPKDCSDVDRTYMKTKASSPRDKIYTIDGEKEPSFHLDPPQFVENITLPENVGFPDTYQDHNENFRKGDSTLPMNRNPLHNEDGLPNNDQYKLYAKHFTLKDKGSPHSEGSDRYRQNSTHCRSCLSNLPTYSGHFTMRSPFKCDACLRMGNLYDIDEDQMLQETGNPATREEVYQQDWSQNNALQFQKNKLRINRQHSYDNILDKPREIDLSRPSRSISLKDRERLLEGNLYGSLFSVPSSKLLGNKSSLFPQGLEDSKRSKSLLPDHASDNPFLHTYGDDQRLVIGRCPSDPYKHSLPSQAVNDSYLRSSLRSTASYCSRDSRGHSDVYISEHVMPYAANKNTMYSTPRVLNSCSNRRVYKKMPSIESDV

Cc1sc2nc(COc3ccc(F)cc3)cc(=O)n2c1[C@@H]1C[C@H]1CO [GNE-6901]
mean fold-potentiation by PAM ([1]; GNE-6901 30 µM, WT): 2.3 ± 0.3 fold | fold potentiation (example trace) ([1]; GNE-6901 30 µM, WT, example trace): 2.3 fold | effect of PAM application ([1]; WT receptors): strongly potentiated | mean fold-potentiation by PAM ([2]; GNE-6901 30 µM, PSAA mutant, cis and trans pooled): 0.9 ± 0.04 fold | effect of PAM application ([2]; GluN1-P532PSAA mutant receptors): entirely unaffected

C[C@]12N[C@H](Cc3ccccc31)c1ccccc12 [MK-801]
time constant of MK-801 inhibition τUV (example trace) ([3]; 1 µM MK-801, P532PSAA mutant, UV, example): 3200 ms | single-exponential time constant of MK-801 inhibition τUV ([3]; 1 µM MK-801, P532PSAA mutant, UV, mean): 1820 ± 290 ms | time constant of MK-801 inhibition τDARK (example trace) ([3]; 1 µM MK-801, P532PSAA mutant, dark, example): 470 ms | single-exponential time constant of MK-801 inhibition τDARK ([3]; 1 µM MK-801, P532PSAA mutant, dark, mean): 940 ± 160 ms | fold slower MK-801 blocking kinetics ([3]; P532PSAA mutant in dark state vs WT): ~ 1.3 fold | fold slower MK-801 inhibition rates ([3]; P532PSAA mutant under UV exposure): ~ 2 fold | mean extent of block produced by MK-801, BlockUV [4, 14]: 97 ± 1% | time constant of MK-801 inhibition (example trace) [4, 14]: 1000 ms | single-exponential time constant of MK-801 inhibition τUV ([4]; 1 µM MK-801, F654PSAA mutant, UV, mean): 730 ± 70 ms | mean extent of block produced by MK-801, BlockDARK [4, 15]: 90 ± 3% | time constant of MK-801 inhibition (example trace) [4, 15]: 3970 ms | single-exponential time constant of MK-801 inhibition τDARK ([4]; 1 µM MK-801, F654PSAA mutant, dark, mean): 3070 ± 560 ms | degree of MK-801 block ([4]; F654PSAA receptors, across light conditions): ≥ 90% | mean extent of block produced by MK-801, BlockUV ([5]; UV): 86 ± 3% and > 85% | time constant of MK-801 inhibition (example trace) ([5]; UV): 3300 ms | single-exponential time constant of MK-801 inhibition τUV ([5]; UV, mean): 4150 ± 910 ms | mean extent of block produced by MK-801, BlockDARK ([5]; dark (trans)): 69 ± 5% and 69% | time constant of MK-801 inhibition (example trace) ([5]; dark): 4400 ms | single-exponential time constant of MK-801 inhibition τDARK ([5]; dark, mean): 5070 ± 580 ms | mean extent of block produced by MK-801, BlockUV ([6]; UV): 98 ± 1% | time constant of MK-801 inhibition (example trace) ([6]; UV): 700 ms | single-exponential time constant of MK-801 inhibition τUV ([6]; UV, mean): 620 ± 50 ms | single-exponential time constant of MK-801 inhibition τBLUE ([6]; blue, mean): 610 ± 90 ms | mean extent of block produced by MK-801, BlockDARK ([6]; dark): 97 ± 1% | time constant of MK-801 inhibition (example trace) ([6]; dark): 600 ms | single-exponential time constant of MK-801 inhibition τDARK ([6]; dark, mean): 690 ± 140 ms

[Mg+2] [Mg^2+]
IC50 ([7]; UV light, read-out: IC50 UV): 35.8 µM | IC50 [7, 16]: 32.6 µM | IC50 ([7]; dark, nominal Mg2+ concentrations, read-out: IC50 DARK): 34.6 µM | IC50 ([8]; UV light, read-out: IC50 UV): 33.3 µM | IC50 [8, 16]: 34.3 µM | IC50 ([8]; dark, read-out: IC50 DARK): 30 µM | IC50 ([9]; UV light, read-out: IC50,UV): 41.5 µM | IC50 ([9]; blue light, read-out: IC50,BLUE): 102 µM | fold increase in IC50 under dark or blue light ([9]; dark or blue vs UV): 2.5 fold | IC50 ([9]; dark, read-out: IC50,DARK): 103 µM

C=Cc1cccc(/N=N/c2ccc(C[C@H](N)C(=O)O)cc2)c1 [PSAA]
cis/trans ratio [10]: 74%

N[C@@H](CCC(=O)O)C(=O)O [glutamate]
EC50 [11, 17]: 13.3 µM | EC50 [11, 18]: 14.6 µM | EC50 [11, 19]: 17.1 µM | τdeact,UV (example trace) ([12]; UV): 77.7 ms | τdeact,BLUE (example trace) [12]: 79.2 ms | mean weighted deactivation time constant τdeact,DARK [12]: 113 ± 36 ms

NCC(=O)O [glycine]
EC50 [11, 17]: 1.5 µM | EC50 [11, 18]: 1.5 µM | EC50 [11, 19]: 10.5 µM | mean photoinhibition degree Inh1 ([13]; 1 μM glycine): ~95% | mean photoinhibition degree Inh10 ([13]; 10 μM glycine): 76.1 ± 2% | mean photoinhibition degree Inh100 ([13]; 100 μM glycine): 49.9 ± 2.5% | mean photoinhibition degree Inh1000 ([13]; 1000 μM glycine): 33.5 ± 2% | mean weighted deactivation time constant τdeact,UV ([12]; UV): 81 ± 4 ms | τdeact,UV (example trace) ([12]; UV): 75.4 ms | τdeact,BLUE (example trace) [12]: 131.3 ms | mean weighted deactivation time constant τdeact,DARK [12]: 111 ± 9 ms
